Test results published in US7803801B2, “Aminopyridine compounds having Syk inhibitory activity” (Japan Tobacco, Inc., priority 2005, dated 2010).
Counter-ions that a name gives are not always drawn. Like-named read-outs stand apart in the source and are kept apart here.

What was measured:
[1] = test system: cultured human mast cells; experiment: Degranulation inhibition test using cultured human mast cells (IgE cross-linking, β-Hexosaminidase release); type: cell-based; details: Mast cell; cultured human mast cells, anti-hIgE stimulation, β-Hexosaminidase index, average; read-out: human degranulation ave. IC50
Experimental: Degranulation Inhibition Test Using Cultured Human Mast Cells
(1) Separation of Hematopoietic Stem Cells;
After 10 to 60 mL of umbilical cord blood collected with heparin was diluted with an equivalent amount of buffer (0.5% BSA, 2 mM EDTA/PBS-), it was superposed on Ficoll-Paque (Amersham Pharmacia Biotech) (Ficoll/Blood (1:2)) and mononuclear leukocyte fraction was collected by centrifuging it at 400 G (1350 rpm) 4° C. for 30 minutes. After centrifugal washing (1500 rpm, 5 min, 4° C.×3) with buffer, the number of cells was counted and 0.1 mL of CD34 Progenitor Cell Isolation Kit (Miltenyi Biotec), Reagent A1 (Fc blocking) was added for 1×10^8 cells. After agitation, 0.1 mL of Reagent A2 (CD34 antibody-hapten) was added (final volume 0.5 mL/1×10^8 cells) and incubated at 9° C. for further 15 minutes after agitation. After centrifugal washing (1500 rpm, 5 min, 4° C.×3), it was resuspeded in a buffer (0.4 mL) and 0.1 mL of Reagent B (anti hapten antibody-microbeads) was added and agitated (final volume 0.5 mL/1×10^8 cells) and incubated at 9° C. for further 15 minutes. After centrifugal washing (1500 rpm, 5 min, 4° C.×2), it was resuspeded in a buffer (0.5 mL) and loaded on CS column (Miltenyi Biotec) set in MACS (MAgnetic Cell Sorting system; Miltenyi Biotec, Daiichi Pure Chemicals) and washed with 30 mL of buffer to remove CD34^− cells. The column was separated from MACS and eluted with 30 mL of buffer and CD34^+ cells bound to the column were collected and used as a hematopoietic stem cell population.
(2) Acquisition of Human Mast Cells by Long-Term Culturing of Hematopoietic Stem Cells;
The CD34^+ cells separated in (1) were resuspended in Iscove's Modified Dulbecco's Medium (IMDM, Gibco) containing human (rh)SCF (1 μg/mL, Peprotech), rhIL-6 (0.5 μg/mL, Peprotech), rhIL-3 (10 ng/mL, Peprotech), 1% Insulin-Transferrin (Gibco), 5×10^−5M 2-ME (Gibco), 0.1% BSA (Sigma) in a density of 1×10^6 cells/ml and disseminated on 24-well culture plate with a dose of 0.1 mL/well and 0.9 ml of IMDM (Methocult SF^BIT StemCell technology) containing 0.9% methyl cellulose was added and culturing was started. The above culture medium (excluding methyl cellulose) was added in a week and after that 100 μL/well of the above culture medium (further excluding IL-3) was added at an interval of every once a week so that cells were diluted to maintain 10^5 cells/mL/well order and cultured more than about 8 weeks and thereby human culture mast cells were obtained.
(3) Expression Enhancement of FcεRI and Inhibition Test IgE Cross-Linking Stimulating Degranulation;
rhIL-4 (final concentration 1 ng/mL, R & D) and Homo sapiens(h) IgE (final concentration 0.5 μg/mL, CHEMICON) were added to the obtained human culture mast cells, and they were incubated for 5 days to enhance the expression of FcεRI. After incubation, cells were collected and, after centrifugal washing (IMDM), they were disseminated on 96-well culture plate in 5×10^4 cells/80 μL/well.
10 μL of a compound 10-fold diluted with IMDM after dissolved in DMSO (DMSO final concentration 0.1%) was added and reacted at 37° C. for 10 minutes. Further, 10 μL of anti-hIgE Ab (CHEMICON) adjusted to 100 μg/mL (final concentration 10 μg/mL) was added and degranulation was caused by being stimulated at 37° C. for 30 minutes. After centrifugation, 50 μL/well of the supernatant was collected and stored at −40° C. untill the quantity of degranulation was measured. The measurement of quantity of degranulation was performed using enzymatic activity of β-Hexosaminidase contained in the granulates as an index. That is, an equivalent amount of p-nitrophenyl-N-acetyl-β-D-glucosaminide (1 mM) (containing 0.1% Triton X-100) which is a substrate of β-Hexosaminidase was added to 50 μL of the culture filtrate, and after reacted at 37° C. for 2 hours, the reaction was terminated by using 100 μL of Carbonate buffer (0.1M, pH 10). […]

[2] = target: GST-Syk Full Protein (human) (Homo sapiens, UniProt P43405); experiment: Syk kinase inhibition test (HTRF method); type: biochemical
Outline: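 HTRF read-out: after EDTA termination and 1 h with XL665-streptavidin and Eu-anti-phosphotyrosine, the 665/620 nm ratio was measured. The reaction ran 30 min at 20–25 °C with final 6.4 nM human GST-Syk, 250 nM biotinylated peptide, 100 μM ATP, pH 7.0 HEPES buffer, 2% DMSO.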

[3] = HTRF, 100 μM ATP, 30 min room temperature, average, read-out: sykHTRF ave IC50
[4] = Tables 2-x, thiophene compounds B, read-out: sykHTRK ave IC50

IC50 [1] | IC50 [2, 3] | IC50 [2, 4] | Structure (SMILES)
100 to 1000 nM | 100 to 1000 nM |  | Cc1ccnc(Nc2cccc(-c3cnc(N4CCN(C)C(=O)C4)s3)n2)c1 [Compound A-1, 1-methyl-4-{5-[6-(4-methylpyridin-2-ylamino)pyridin-2-yl]thiazol-2-yl}piperazin-2-one]
> 1000 nM | < 100 nM |  | CNC(=O)C1CCN(c2ncc(-c3cccc(Nc4cc(C)ccn4)n3)s2)CC1 [Compound A-4, N-methyl-1-{5-[6-(4-methylpyridin-2-ylamino)pyridin-2-yl]thiazol-2-yl}piperidine-4-carboxamide]
100 to 1000 nM | < 100 nM |  | Cc1ccnc(Nc2cccc(-c3cnc(N4CCC(C(=O)NCCO)CC4)s3)n2)c1 [Compound A-5, N-(2-hydroxyethyl)-1-{5-[6-(4-methylpyridin-2-ylamino)pyridin-2-yl]thiazol-2-yl}piperidine-4-carboxamide]
100 to 1000 nM | 100 to 1000 nM |  | Cc1ccnc(Nc2cccc(-c3cnc([C@H]4CC[C@H](C(=O)N5CCC(O)CC5)CC4)s3)n2)c1 [Compound A-8, (4-hydroxypiperidin-1-yl)-(trans-4-{5-[6-(4-methylpyridin-2-ylamino)pyridin-2-yl]thiazol-2-yl}cyclohexyl)methanone]
100 to 1000 nM | 100 to 1000 nM |  | Cc1ccnc(Nc2cccc(-c3cnc([C@H](C)N)s3)n2)c1 [Compound A-9, N—((S)-1-{5-[6-(4-methylpyridin-2-ylamino)pyridin-2-yl]thiazol-2-yl}ethyl)amine]
100 to 1000 nM | 100 to 1000 nM |  | CC(=O)N[C@@H](C)c1ncc(-c2cccc(Nc3cc(C)ccn3)n2)s1 [Compound A-10, N—((S)-1-{5-[6-(4-methylpyridin-2-ylamino)pyridin-2-yl]thiazol-2-yl}ethyl)acetamide]
> 1000 nM | > 1000 nM |  | Cc1ccnc(Nc2cccc(-c3cnc([C@@H]4COC(C)(C)N4C(=O)OC(C)(C)C)s3)n2)c1 [Compound A-12, (S)-2,2-dimethyl-4-{5-[6-(4-methylpyridin-2-ylamino)pyridin-2-yl]thiazol-2-yl}oxazolidine-3-carboxylic acid tert-butyl ester]
100 to 1000 nM | < 100 nM |  | Cc1ccnc(Nc2cccc(-c3cnc([C@@H]4COC(=O)N4)s3)n2)c1 [Compound A-14, (S)-4-{5-[6-(4-methylpyridin-2-ylamino)pyridin-2-yl]thiazol-2-yl}oxazolidin-2-one]
100 to 1000 nM | < 100 nM |  | Cc1ccnc(Nc2cccc(-c3cnc(N4CCC(CCC(=O)O)CC4)s3)n2)c1 [Compound A-17, 3-(1-{5-[6-(4-methyl-pyridin-2-ylamino)pyridin-2-yl]thiazol-2-yl}piperidin-4-yl)propionic acid]
100 to 1000 nM | < 100 nM |  | CC(=O)Nc1nc(C)c(-c2cccc(Nc3cc(C)ccn3)n2)s1 [Compound A-20, N-{4-methyl-5-[6-(4-methylpyridin-2-ylamino)pyridin-2-yl]thiazol-2-yl}acetamide]
100 to 1000 nM | < 100 nM |  | CC(=O)Nc1nc(C)c(-c2cncc(Nc3cc(C)ccn3)n2)s1 [Compound A-21, N-{4-methyl-5-[6-(4-methylpyridin-2-ylamino)pyrazin-2-yl]thiazol-2-yl}acetamide]
> 1000 nM | 100 to 1000 nM |  | COc1cc(Nc2cccc(-c3sc(NC(C)=O)nc3C)n2)ncn1 [Compound A-22]
> 1000 nM | 100 to 1000 nM |  | Cc1ccnc(Nc2cccc(-c3cncs3)n2)c1 [Compound A-24]
 |  | < 100 nM | Cc1ccnc(Nc2cccc(-c3ccc(CN(Cc4ccc(C(=O)O)cc4)C(=O)C(C)C)s3)n2)c1 [Compound B-127, 4-[(N-isobutyryl-N-{5-[6-(4-methylpyridin-2-ylamino)pyridin-2-yl]thiophen-2-ylmethyl}amino)methyl]benzoic acid]
 |  | < 100 nM | Cc1ccnc(Nc2cccc(-c3ccc(CN(Cc4ccc(C(=O)O)cc4)C(=O)CO)s3)n2)c1 [Compound B-128, 4-[(N-(2-hydroxyacetyl)-N-{5-[6-(4-methylpyridin-2-ylamino)pyridin-2-yl]thiophen-2-ylmethyl}amino)methyl]benzoic acid]

The next lines start with the compound.

Structure (SMILES) | IC50 [1] | IC50 [2, 3] | IC50 [2, 4]
Cc1ccnc(Nc2cccc(-c3cnc(N4CCC(C(=O)O)CC4)s3)n2)c1 [Compound A-2, 1-{5-[6-(4-methylpyridin-2-ylamino)pyridin-2-yl]thiazol-2-yl}piperidine-4-carboxylic acid] | > 1000 nM | < 100 nM | 
Cc1ccnc(Nc2cccc(-c3cnc(N4CCC(C(N)=O)CC4)s3)n2)c1 [Compound A-3, 1-{5-[6-(4-methylpyridin-2-ylamino)pyridin-2-yl]thiazol-2-yl}piperidine-4-carboxamide] | 100 to 1000 nM | < 100 nM | 
COC(=O)[C@H]1CC[C@H](c2ncc(-c3cccc(Nc4cc(C)ccn4)n3)s2)CC1 [Compound A-6, trans-4-{5-[6-(4-methylpyridin-2-ylamino)pyridin-2-yl]thiazol-2-yl}cyclohexanecarboxylic acid methyl ester] | 100 to 1000 nM | 100 to 1000 nM | 
Cc1ccnc(Nc2cccc(-c3cnc([C@H]4CC[C@H](C(=O)O)CC4)s3)n2)c1 [Compound A-7, trans-4-{5-[6-(4-methylpyridin-2-ylamino)pyridin-2-yl]thiazol-2-yl}cyclohexanecarboxylic acid] | > 1000 nM | < 100 nM | 
Cc1ccnc(Nc2cccc(-c3cnc([C@@H]4COC(=O)N4C)s3)n2)c1 [Compound A-11] | 100 to 1000 nM | 100 to 1000 nM | 
Cc1ccnc(Nc2cccc(-c3cnc([C@@H](N)CO)s3)n2)c1 [Compound A-13, (S)-2-amino-2-{5-[6-(4-methylpyridin-2-ylamino)pyridin-2-yl]thiazol-2-yl}ethanol] | 100 to 1000 nM | 100 to 1000 nM | 
Cc1ccnc(Nc2cccc(-c3cnc(N4CCC(CC(=O)O)CC4)s3)n2)c1 [Compound A-15, (1-{5-[6-(4-methylpyridin-2-ylamino)pyridin-2-yl]thiazol-2-yl}piperidin-4-yl)acetic acid dihydrochloride] | 100 to 1000 nM | < 100 nM | 
Cc1ccnc(Nc2cccc(-c3cnc(N(C)C[C@H]4CC[C@H](C(=O)O)CC4)s3)n2)c1 [Compound A-16, trans-4-[(N-methyl-N-{5-[6-(4-methylpyridin-2-ylamino)pyridin-2-yl]thiazol-2-yl}amino)methyl]cyclohexanecarboxylic acid] | 100 to 1000 nM | < 100 nM | 
CCC(=O)Nc1nc(C)c(-c2cccc(Nc3cc(C)ccn3)n2)s1 [Compound A-19, N-{4-methyl-5-[6-(4-methylpyridin-2-ylamino)pyridin-2-yl]thiazol-2-yl}propionamide] | 100 to 1000 nM | < 100 nM | 
CC(=O)Nc1ncc(-c2cccc(Nc3cc(C)ccn3)n2)s1 [Compound A-23] | 100 to 1000 nM |  | 
CC(=O)O[C@@H](C)c1ncc(-c2cccc(Nc3cc(C)ccn3)n2)s1 [Compound A-25, acetic acid(S)-1-{5-[6-(4-methylpyridin-2-ylamino)pyridin-2-yl]thiazol-2-yl}ethyl ester] | 100 to 1000 nM | < 100 nM | 
